From patent publication US20140296216A1, “PYRIMIDO[4,5-D]PYRIMIDINYL COMPOUNDS, PHARMACEUTICAL COMPOSITIONS AND USES THEREOF” (GUANGZHOU INSTITUTE OF BIOMEDICINE AND HEALTH, CHINESE …, priority 2011, published 2014)

What was measured:
EGFRWT = EGFRWT (Homo sapiens, UniProt P00533); assay: In vitro enzymatic activity assay (Z'-LYTE), wild type EGFR; assay type: biochemical; conditions: Z'-LYTE FRET peptide assay; read-out: EGFRWT kinase activity (IC50)
Text: (§1) In vitro enzymatic activity assay: using Z′-LYTE™ technology (detect fluorescence, coupled-enzyme format, based on the differential sensitivity of phosphorylated and non-phosphorylated peptides to proteolytic cleavage), based on FRET, using Z′ LYTE™ FRET peptide substrate, detect the activity of compounds against enzymatic. […] After one hour, site specific protease which can recognize and cleaves non-phosphorylated FRET-peptide. After another hour, using an excitation wavelength of 400 nm excites, then detect the […] at 445 nm and 520 nm.

EGFR T790M kinase = molecular target: T1, EGFR T790M kinase (Homo sapiens, UniProt P00533, T790M); assay: In vitro enzymatic activity assay (Z'-LYTE), EGFR T790M; assay type: biochemical; conditions: Z'-LYTE FRET peptide assay; read-out: EGFRT790M kinase activity (IC50)
T1 construct: purchased invitrogen PV4803
Text: as §1

EGFRL858R = EGFRL858R (Homo sapiens, UniProt P00533, L858R); assay: In vitro enzymatic activity assay (Z'-LYTE), EGFR L858R; assay type: biochemical; conditions: Z'-LYTE FRET peptide assay; read-out: EGFRL858R kinase activity (IC50)
Text: as §1

EGFRL861Q = EGFRL861Q (Homo sapiens, UniProt P00533, L861Q); assay: In vitro enzymatic activity assay (Z'-LYTE), EGFR L861Q; assay type: biochemical; conditions: Z'-LYTE FRET peptide assay; read-out: EGFRL861Q kinase activity (IC50)
Text: as §1

EGFRL858R + T790M = EGFRL858R + T790M (Homo sapiens, UniProt P00533, L858R/T790M); assay: In vitro enzymatic activity assay (Z'-LYTE), EGFR L858R + T790M; assay type: biochemical; conditions: Z'-LYTE FRET peptide assay; read-out: EGFRL858R + T790M kinase activity (IC50)
Text: as §1

[1] = system: H1975 (lung cancer cells, EGFR L858R&T790M); assay: Cell proliferation by MTT, H1975; assay type: cell-based; conditions: Homo sapiens, NCI-H1975, read-out: H1975 50% inhibitory concentration (IC50), 72 h
[2] = system: HCC827 (lung cancer cells, EGFR E746-A750 deletion); assay: Cell proliferation by MTT, HCC827; assay type: cell-based; conditions: Homo sapiens, HCC827, read-out: HCC827 50% inhibitory concentration (IC50), 72 h
[3] = system: A431 (Human epidermal carcinoma, EGFR high expression); assay: Cell proliferation by MTT, A431; assay type: cell-based; conditions: A-431, read-out: A431 50% inhibitory concentration (IC50), 72 h
[4] = system: NCI-H820 (lung cancer cells); assay: Cell proliferation by MTT, NCI-H820; assay type: cell-based; conditions: NCI-H820, read-out: NCI-H820 50% inhibitory concentration (IC50), 72 h

T1 sequence (P00533 25-1210 T790M): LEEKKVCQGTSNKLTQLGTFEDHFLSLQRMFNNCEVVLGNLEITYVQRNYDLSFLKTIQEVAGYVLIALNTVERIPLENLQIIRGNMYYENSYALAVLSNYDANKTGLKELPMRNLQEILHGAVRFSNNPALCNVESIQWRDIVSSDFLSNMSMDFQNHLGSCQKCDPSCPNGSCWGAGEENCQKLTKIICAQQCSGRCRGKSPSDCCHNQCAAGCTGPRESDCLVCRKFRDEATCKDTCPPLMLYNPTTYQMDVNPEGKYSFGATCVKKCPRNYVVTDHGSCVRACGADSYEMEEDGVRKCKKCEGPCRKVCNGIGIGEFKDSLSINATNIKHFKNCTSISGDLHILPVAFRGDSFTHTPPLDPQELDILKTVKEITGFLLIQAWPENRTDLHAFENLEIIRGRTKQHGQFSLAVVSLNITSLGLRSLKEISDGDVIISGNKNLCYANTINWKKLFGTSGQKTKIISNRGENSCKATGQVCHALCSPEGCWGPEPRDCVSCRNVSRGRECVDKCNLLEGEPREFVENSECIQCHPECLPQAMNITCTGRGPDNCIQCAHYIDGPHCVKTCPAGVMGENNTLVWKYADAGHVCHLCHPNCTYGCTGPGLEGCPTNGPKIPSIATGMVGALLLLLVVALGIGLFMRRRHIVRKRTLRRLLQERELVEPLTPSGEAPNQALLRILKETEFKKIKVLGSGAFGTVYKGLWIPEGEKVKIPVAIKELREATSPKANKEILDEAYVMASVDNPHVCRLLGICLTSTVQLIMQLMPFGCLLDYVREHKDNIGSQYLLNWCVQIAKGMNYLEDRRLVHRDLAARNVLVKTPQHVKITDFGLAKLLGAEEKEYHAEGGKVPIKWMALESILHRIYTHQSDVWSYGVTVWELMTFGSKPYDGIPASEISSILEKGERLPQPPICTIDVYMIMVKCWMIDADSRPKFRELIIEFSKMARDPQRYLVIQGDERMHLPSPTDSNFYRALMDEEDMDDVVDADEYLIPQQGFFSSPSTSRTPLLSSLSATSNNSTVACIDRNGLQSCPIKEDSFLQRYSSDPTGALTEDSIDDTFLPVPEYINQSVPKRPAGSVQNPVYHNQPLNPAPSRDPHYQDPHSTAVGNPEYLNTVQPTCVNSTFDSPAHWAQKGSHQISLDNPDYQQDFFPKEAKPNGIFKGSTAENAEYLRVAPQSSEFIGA
Chain of EGFRWT (P00533 25-1210): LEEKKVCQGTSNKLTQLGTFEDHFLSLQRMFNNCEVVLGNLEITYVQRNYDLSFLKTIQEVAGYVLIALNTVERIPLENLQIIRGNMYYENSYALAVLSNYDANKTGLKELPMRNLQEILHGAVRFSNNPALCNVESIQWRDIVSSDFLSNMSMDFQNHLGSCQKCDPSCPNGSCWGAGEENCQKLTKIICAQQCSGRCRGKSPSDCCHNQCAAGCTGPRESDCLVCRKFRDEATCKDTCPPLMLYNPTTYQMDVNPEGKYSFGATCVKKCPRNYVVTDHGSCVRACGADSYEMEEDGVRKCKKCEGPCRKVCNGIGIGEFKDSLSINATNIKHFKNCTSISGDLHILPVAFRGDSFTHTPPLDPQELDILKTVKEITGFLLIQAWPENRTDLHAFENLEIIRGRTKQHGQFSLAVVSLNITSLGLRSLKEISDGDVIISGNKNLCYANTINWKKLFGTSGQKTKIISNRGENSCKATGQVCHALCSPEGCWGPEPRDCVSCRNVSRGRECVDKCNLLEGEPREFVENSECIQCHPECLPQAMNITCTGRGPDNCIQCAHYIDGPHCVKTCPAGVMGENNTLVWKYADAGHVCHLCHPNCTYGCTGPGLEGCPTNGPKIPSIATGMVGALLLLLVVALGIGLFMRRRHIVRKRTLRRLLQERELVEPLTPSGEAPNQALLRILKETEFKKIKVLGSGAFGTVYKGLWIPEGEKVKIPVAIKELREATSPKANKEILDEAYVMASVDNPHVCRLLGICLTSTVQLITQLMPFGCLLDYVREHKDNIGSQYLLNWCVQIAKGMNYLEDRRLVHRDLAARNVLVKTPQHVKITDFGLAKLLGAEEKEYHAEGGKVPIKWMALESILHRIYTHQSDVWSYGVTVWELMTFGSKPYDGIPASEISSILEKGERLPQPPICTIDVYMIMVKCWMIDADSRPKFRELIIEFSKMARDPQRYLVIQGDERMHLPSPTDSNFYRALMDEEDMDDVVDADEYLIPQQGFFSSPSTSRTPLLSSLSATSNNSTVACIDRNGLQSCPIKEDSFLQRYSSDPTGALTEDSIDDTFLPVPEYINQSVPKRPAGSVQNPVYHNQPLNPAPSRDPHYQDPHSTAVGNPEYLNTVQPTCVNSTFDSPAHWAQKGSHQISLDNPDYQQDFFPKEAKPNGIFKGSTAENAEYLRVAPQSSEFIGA
Chain of EGFRL858R + T790M (P00533 25-1210 T790M/L858R): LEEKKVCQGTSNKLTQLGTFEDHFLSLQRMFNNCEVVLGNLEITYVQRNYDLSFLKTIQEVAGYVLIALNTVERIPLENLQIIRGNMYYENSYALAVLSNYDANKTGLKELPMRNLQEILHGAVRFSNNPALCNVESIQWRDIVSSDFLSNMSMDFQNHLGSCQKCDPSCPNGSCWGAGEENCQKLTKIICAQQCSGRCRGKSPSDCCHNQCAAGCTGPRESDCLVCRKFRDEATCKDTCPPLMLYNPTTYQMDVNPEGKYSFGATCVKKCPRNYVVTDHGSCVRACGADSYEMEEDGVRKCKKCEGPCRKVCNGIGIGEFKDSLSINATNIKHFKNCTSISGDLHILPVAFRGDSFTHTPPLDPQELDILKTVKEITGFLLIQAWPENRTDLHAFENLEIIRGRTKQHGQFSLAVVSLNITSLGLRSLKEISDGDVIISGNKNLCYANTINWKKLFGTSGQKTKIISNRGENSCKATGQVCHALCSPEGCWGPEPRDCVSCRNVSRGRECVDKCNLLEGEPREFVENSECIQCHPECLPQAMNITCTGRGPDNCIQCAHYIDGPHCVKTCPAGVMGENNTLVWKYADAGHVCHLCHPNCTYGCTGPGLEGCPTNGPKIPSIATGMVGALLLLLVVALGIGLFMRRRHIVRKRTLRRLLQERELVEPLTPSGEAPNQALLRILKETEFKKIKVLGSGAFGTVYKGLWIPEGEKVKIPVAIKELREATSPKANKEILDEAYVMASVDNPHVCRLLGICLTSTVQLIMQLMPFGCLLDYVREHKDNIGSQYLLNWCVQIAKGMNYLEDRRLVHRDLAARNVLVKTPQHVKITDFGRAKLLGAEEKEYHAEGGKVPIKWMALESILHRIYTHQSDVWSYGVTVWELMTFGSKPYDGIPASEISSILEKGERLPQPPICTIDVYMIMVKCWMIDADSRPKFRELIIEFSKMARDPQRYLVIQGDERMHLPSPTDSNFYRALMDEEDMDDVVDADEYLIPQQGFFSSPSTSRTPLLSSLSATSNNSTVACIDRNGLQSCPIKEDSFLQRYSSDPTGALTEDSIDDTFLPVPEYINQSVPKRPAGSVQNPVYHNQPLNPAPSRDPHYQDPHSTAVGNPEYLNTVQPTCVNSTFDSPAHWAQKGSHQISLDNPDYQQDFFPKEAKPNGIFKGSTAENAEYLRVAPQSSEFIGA
Chain of EGFRL861Q (P00533 25-1210 L861Q): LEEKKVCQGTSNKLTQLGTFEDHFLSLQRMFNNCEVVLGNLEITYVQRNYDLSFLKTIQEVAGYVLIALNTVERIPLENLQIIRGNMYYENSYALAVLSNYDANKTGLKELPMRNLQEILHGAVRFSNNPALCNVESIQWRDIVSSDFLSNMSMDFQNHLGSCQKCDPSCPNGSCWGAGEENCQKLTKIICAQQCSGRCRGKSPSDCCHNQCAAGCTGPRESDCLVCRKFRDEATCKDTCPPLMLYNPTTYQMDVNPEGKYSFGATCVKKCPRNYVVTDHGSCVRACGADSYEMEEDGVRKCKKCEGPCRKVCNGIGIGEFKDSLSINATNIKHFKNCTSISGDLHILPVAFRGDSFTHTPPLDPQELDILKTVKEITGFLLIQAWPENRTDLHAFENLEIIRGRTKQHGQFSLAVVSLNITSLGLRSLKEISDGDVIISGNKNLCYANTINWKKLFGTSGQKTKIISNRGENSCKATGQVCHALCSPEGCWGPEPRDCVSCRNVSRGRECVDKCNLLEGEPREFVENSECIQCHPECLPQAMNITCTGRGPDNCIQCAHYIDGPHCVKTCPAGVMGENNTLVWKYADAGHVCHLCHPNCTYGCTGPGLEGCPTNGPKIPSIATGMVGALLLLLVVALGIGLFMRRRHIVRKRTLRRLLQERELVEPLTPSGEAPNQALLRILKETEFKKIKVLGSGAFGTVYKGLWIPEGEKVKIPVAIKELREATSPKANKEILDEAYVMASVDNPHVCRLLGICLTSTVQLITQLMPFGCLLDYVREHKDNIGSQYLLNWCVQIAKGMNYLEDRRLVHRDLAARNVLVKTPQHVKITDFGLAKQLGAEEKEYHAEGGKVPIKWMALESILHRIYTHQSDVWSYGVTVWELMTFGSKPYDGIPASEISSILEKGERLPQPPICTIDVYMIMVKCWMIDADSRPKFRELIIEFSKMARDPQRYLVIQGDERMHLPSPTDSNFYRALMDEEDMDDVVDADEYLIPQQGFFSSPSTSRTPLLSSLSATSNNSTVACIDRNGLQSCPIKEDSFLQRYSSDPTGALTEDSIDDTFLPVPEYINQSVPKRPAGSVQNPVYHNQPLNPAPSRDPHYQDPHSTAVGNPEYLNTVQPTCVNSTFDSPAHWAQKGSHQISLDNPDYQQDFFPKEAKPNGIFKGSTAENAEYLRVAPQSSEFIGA

Row | IC50 (EGFRWT) [nM] | IC50 (EGFR T790M kinase) [nM] | IC50 (EGFRL858R) [nM] | IC50 (EGFRL861Q) [nM] | IC50 (EGFRL858R + T790M) [nM] | IC50 [1] [nM] | IC50 [2] [nM] | IC50 [3] [nM] | IC50 [4] [nM] | SMILES
1 | ≥ 10000 | ≥ 10000 | ≥ 10000 | 100 to 1000 | 1000 to 10000 | 12100 | > 100000 | > 100000 | 95700 | C=CC(=O)Nc1cccc(N2C(=O)N(C)Cc3cnc(N4CCN(C)CC4)nc32)c1 [C-EGF19, N-(3-(3-methyl-7-(4-methylpiperazin-1-yl)-2-oxo-3,4-dihydropyrimido[4,5-d]pyrimidin-1(2H)-yl)phenyl)acrylamide]
2 | ≤ 10 | ≤ 10 | ≤ 10 | ≤ 10 | ≤ 10 | 179 | 125 | 3440 | > 100000 | C=CC(=O)Nc1cccc(N2C(=O)N(C)Cc3cnc(Nc4ccc(N5CCC(N6CCN(C)CC6)CC5)cc4)nc32)c1 [Compound X003, N-(3-(3-methyl-7-(4-(4-(4-methylpiperazin-1-yl)piperidin-1-yl)phenylamino)-2-oxo-3,4-dihydropyrimido[4,5-d]pyrimidin-1(2H)-yl)phenyl)acrylamide]
3 | ≤ 10 | ≤ 10 | ≤ 10 | ≤ 10 | ≤ 10 | 501 | 198 | 1230 | 54600 | C=CC(=O)Nc1cccc(N2C(=O)N(c3ccc(OC)cc3)Cc3cnc(Nc4ccc(N5CCN(C)CC5)cc4OC)nc32)c1 [C-EGF25, N-(3-(7-(2-methoxy-4-(4-methylpiperazin-1-yl)phenylamino)-3-(4-methoxyphenyl)-2-oxo-3,4-dihydropyrimido[4,5-d]pyrimidin-1(2H)-yl)phenyl)acrylamide]
4 | ≤ 10 | ≤ 10 | ≤ 10 | ≤ 10 | ≤ 10 | 115 | 29 | 3970 | > 100000 | C=CC(=O)Nc1cccc(N2C(=O)N(C)Cc3cnc(Nc4ccc(N5CCN(C)CC5)cc4)nc32)c1 [x001, N-(3-(3-methyl-7-(4-(4-methylpiperazin-1-yl)phenylamino)-2-oxo-3,4-dihydropyrimido[4,5-d]pyrimidin-1(2H)-yl)phenyl)acrylamide]
5 | ≤ 10 | 10 to 100 | ≤ 10 | ≤ 10 | 10 to 100 | 1070 | 495 | 24900 | > 100000 | C=CC(=O)Nc1cccc(N2C(=O)N(C)Cc3cnc(Nc4ccc(OCCOC)cc4OC)nc32)c1 [C-EGF22, N-(3-(7-(2-methoxy-4-(2-methoxyethoxy)phenylamino)-3-methyl-2-oxo-3,4-dihydropyrimido[4,5-d]pyrimidin-1(2H)-yl)phenyl)acrylamide]
6 | 10 to 100 | 10 to 100 | ≤ 10 | ≤ 10 | ≤ 10 | 449 | – | – | – | C=CC(=O)Nc1cccc(N2C(=O)N(C)Cc3cnc(Nc4ccc(N5CC[C@@H](N(C)C)C5)cc4OC)nc32)c1 [C-EGF15, (R)—N-(3-(7-(4-(3-(dimethylamino)pyrrolidin-1-yl)-2-methoxyphenylamino)-3-methyl-2-oxo-3,4-dihydropyrimido[4,5-d]pyrimidin-1(2H)-yl)phenyl)acrylamide]
7 | 10 to 100 | 10 to 100 | 10 to 100 | 10 to 100 | 10 to 100 | 159 | 159 | 21200 | > 100000 | C=CC(=O)Nc1cccc(N2C(=O)N(C)Cc3cnc(Nc4ccc(N5CCOCC5)cc4OC)nc32)c1 [C-EGF08, N-(3-(7-(2-methoxy-4-morpholinophenylamino)-3-methyl-2-oxo-3,4-dihydropyrimido[4,5-d]pyrimidin-1(2H)-yl)phenyl)acrylamide]
8 | ≤ 10 | 10 to 100 | ≤ 10 | ≤ 10 | ≤ 10 | 1100 | 179 | 29900 | > 100000 | C=CC(=O)Nc1cccc(N2C(=O)N(C)Cc3cnc(Nc4ccc(OCCN5CCOCC5)cc4OC)nc32)c1 [Compound X008, N-(3-(7-(2-methoxy-4-(2-morpholinoethoxy)phenylamino)-3-methyl-2-oxo-3,4-dihydropyrimido[4,5-d]pyrimidin-1(2H)-yl)phenyl)acrylamide]
9 | ≤ 10 | ≤ 10 | ≤ 10 | ≤ 10 | ≤ 10 | 143 | – | – | – | C=CC(=O)Nc1cccc(N2C(=O)N(C)Cc3cnc(Nc4ccc(N5CCN(C(C)=O)CC5)cc4OC)nc32)c1 [C-EGF20, N-(3-(7-(4-(4-acetylpiperazin-1-yl)-2-methoxyphenylamino)-3-methyl-2-oxo-3,4-dihydropyrimido[4,5-d]pyrimidin-1(2H)-yl)phenyl)acrylamide]
10 | ≤ 10 | ≤ 10 | ≤ 10 | ≤ 10 | ≤ 10 | 30 | 6 | – | – | C=CC(=O)Nc1cccc(N2C(=O)N(c3cccc4ccccc34)Cc3cnc(Nc4ccc(N5CCN(C)CC5)cc4OC)nc32)c1 [C-EGF28, N-(3-(7-(2-methoxy-4-(4-methylpiperazin-1-yl)phenylamino)-3-(naphthalen-1-yl)-2-oxo-3,4-dihydropyrimido[4,5-d]pyrimidin-1(2H)-yl)phenyl)acrylamide]
11 | ≤ 10 | 10 to 100 | ≤ 10 | ≤ 10 | 10 to 100 | – | – | – | – | C=CC(=O)Nc1cccc(N2C(=O)N(c3cccc([N+](=O)[O-])c3)Cc3cnc(Nc4ccc(N5CCN(C)CC5)cc4OC)nc32)c1 [C-EGF37, N-(3-(7-(2-methoxy-4-(4-methylpiperazin-1-yl)phenylamino)-3-(3-nitrophenyl)-2-oxo-3,4-dihydropyrimido[4,5-d]pyrimidin-1(2H)-yl)phenyl)acrylamide]
12 | ≤ 10 | 10 to 100 | ≤ 10 | ≤ 10 | 10 to 100 | – | – | – | – | C=CS(=O)(=O)Nc1cccc(N2C(=O)N(C)Cc3cnc(Nc4ccc(N5CCN(C)CC5)cc4OC)nc32)c1 [C-EGF40, N-(3-(7-(2-methoxy-4-(4-methylpiperazin-1-yl)phenylamino)-3-methyl-2-oxo-3,4-dihydropyrimido[4,5-d]pyrimidin-1(2H)-yl)phenyl)ethenesulfonamide]
13 | ≤ 10 | ≤ 10 | ≤ 10 | ≤ 10 | ≤ 10 | – | – | – | – | C=CC(=O)Nc1cccc(N2C(=O)N(c3ccc(Oc4ccccc4)cc3)Cc3cnc(Nc4ccc(N5CCN(C)CC5)cc4OC)nc32)c1 [C-EGF31, N-(3-(7-(2-methoxy-4-(4-methylpiperazin-1-yl)phenylamino)-2-oxo-3-(4-phenoxyphenyl)-3,4-dihydropyrimido[4,5-d]pyrimidin-1(2H)-yl)phenyl)acrylamide]
14 | ≤ 10 | ≤ 10 | ≤ 10 | ≤ 10 | ≤ 10 | – | – | – | – | C=CC(=O)Nc1cccc(N2C(=O)N(c3cccc(Cl)c3)Cc3cnc(Nc4ccc(N5CCN(C)CC5)cc4OC)nc32)c1 [C-EGF35, N-(3-(3-(3-chlorophenyl)-7-(2-methoxy-4-(4-methylpiperazin-1-yl)phenylamino)-2-oxo-3,4-dihydropyrimido[4,5-d]pyrimidin-1(2H)-yl)phenyl)acrylamide]
15 | 1000 to 10000 | 1000 to 10000 | 1000 to 10000 | 1000 to 10000 | 1000 to 10000 | > 20000 | – | > 30000 | – | CCC(=O)Nc1cccc(N2C(=O)N(C)Cc3cnc(Nc4ccc(N5CCN(C)CC5)cc4OC)nc32)c1 [C-EGF34, N-(3-(7-(2-methoxy-4-(4-methylpiperazin-1-yl)phenylamino)-3-methyl-2-oxo-3,4-dihydropyrimido[4,5-d]pyrimidin-1(2H)-yl)phenyl)propionamide]
16 | ≤ 10 | 10 to 100 | ≤ 10 | ≤ 10 | ≤ 10 | 380 | – | – | – | C=CC(=O)Nc1cccc(N2C(=O)N(C)Cc3cnc(Nc4ccc(N5CC[C@H](N(C)C)C5)cc4OC)nc32)c1 [C-EGF16, (S)—N-(3-(7-(4-(3-(dimethylamino)pyrrolidin-1-yl)-2-methoxyphenylamino)-3-methyl-2-oxo-3,4-dihydropyrimido[4,5-d]pyrimidin-1(2H)-yl)phenyl)acrylamide]
